The record followed here is patent US20060116368A1, “4-Piperidinecarboxamide modulators of vanilloid VR1 receptor” (priority 2004, published 2006).

The structures appear in SMILES notation.

The target of the assay is T1, Human Vanilloid Receptor 1 (Homo sapiens, UniProt Q8NER1).
T1 construct: expressed in transfected cells; host or cells: HEK 293
The assay can be described thus: Human VR1 functional assay using FLIPR, Protocol 1. It counts as cell-based. To be noted: for inhibition at 9 µM: HEK293, 9 uM, inhibition of capsaicin (EC80)-induced calcium response, HEK 293 cells transfected with hVR1, read-out: h % I (9 uM); for IC50: decreased capsaicin (EC80)-induced calcium response, HEK 293 hVR1, read-out: h IC50; for Emax at 12.2 µM: HEK293, 12.2 uM, test compound-induced calcium response (agonist mode), HEK 293 hVR1, read-out: % maximal reponse to capsaicin (12.2 uM); for EC50: test compound-induced calcium response at the 5-minute time point, HEK 293 hVR1, read-out: h EC50. Here is the method: The functional activity of the test compounds was determined by measuring changes in intracellular calcium concentration using FLIPR™ Calcium-3 Assay Kit and FLIPR™ technology.
HEK 293 cells transfected with Human Vanilloid Receptor 1 were maintained at 37° C. and 5% CO2 in: Dulbecco's Modification of Eagle's Medium (high glucose, L-glutamine, pyridoxine HCl, No sodium pyruvate), 10% FBS, 1× Penicillin-Streptomycin-Amphotericin B, 200 ug/mL zeocin. Approximately 24 hours prior to assay, 30,000 cells/well were plated onto a 384-well black clear bottom poly-D-lysine-coated assay plate with a well volume of 25 µL using Titertek Multidrop.
On the day of the assay, the medium was dumped and 50 μL 1× dye were loaded using Multidrop. Plates were incubated with dye at 37° C. for 30 minutes followed by 30 minutes incubation at room temperature. Then the plates were assayed by FLIPR™ with 2 additions: 12.5 μL test compound with 5 minutes data acquisition followed by 12.5 μL capsaicin at the EC80 concentration.
The EC50 values of test compounds were calculated based on a test compound-induced calcium response at the 5-minute time point. The IC50 values of compounds were calculated based on a decreased capsaicin-induced calcium response in the presence of test compound.

T1 sequence (Q8NER1 whole entry): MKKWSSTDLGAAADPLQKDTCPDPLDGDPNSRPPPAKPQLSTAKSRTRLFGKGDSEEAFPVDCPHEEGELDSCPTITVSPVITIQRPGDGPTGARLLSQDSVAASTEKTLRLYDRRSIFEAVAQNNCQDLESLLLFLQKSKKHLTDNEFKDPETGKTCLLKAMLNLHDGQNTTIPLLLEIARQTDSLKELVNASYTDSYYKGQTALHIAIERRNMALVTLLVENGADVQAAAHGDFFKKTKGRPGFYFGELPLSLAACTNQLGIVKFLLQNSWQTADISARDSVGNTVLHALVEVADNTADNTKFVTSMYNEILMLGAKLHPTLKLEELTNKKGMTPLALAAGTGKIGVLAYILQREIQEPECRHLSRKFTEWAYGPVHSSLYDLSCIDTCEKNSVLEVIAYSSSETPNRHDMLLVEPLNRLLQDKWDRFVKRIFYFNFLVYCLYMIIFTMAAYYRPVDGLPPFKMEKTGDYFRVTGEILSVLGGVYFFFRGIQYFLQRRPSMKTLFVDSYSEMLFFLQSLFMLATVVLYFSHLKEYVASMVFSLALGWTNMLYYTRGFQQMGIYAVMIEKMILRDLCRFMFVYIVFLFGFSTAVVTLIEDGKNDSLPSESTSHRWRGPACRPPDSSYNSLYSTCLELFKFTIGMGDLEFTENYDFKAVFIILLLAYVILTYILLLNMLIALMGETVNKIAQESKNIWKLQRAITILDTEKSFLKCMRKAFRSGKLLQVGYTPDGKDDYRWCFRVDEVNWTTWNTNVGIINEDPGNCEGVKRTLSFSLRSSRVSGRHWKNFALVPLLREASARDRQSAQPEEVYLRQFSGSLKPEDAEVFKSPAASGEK

On to `Cn1cnc2c(N3CCC(C(=O)Nc4cccc5[nH]ccc45)CC3)ncnc21` [Example 54, 1-(9-Methyl-9H-purin-6-yl)-piperidine-4-carboxylic acid (1H-indol-4-yl)-amide], for which the inhibition at 9 µM came out at 16%.

With `O=C(Nc1cccc2cn[nH]c12)C1CCN(c2cccc(C(F)(F)F)c2)CC1` [Example 11, 1-(3-Trifluoromethyl-phenyl)-piperidine-4-carboxylic acid (1H-indazol-7-yl)-amide], the inhibition at 9 µM was determined as 72% and the concentration for half-maximal inhibition (IC50) came out at 2.84 µM.

Take `Cc1cccnc1N1CCC(C(=O)Nc2ccc3c(c2)NC(=O)CO3)CC1` [Example 158, 3′-Methyl-3,4,5,6-tetrahydro-2H-[1,2′]bipyridinyl-4-carboxylic acid (3-oxo-3,4-dihydro-2H-benzo[1,4]oxazin-6-yl)-amide]: the inhibition at 9 µM came to 39%.

Turning to `O=C(Nc1ncnc2sccc12)C1CCN(c2cccc(C(F)(F)F)c2)CC1` [Example 10, 1-(3-Trifluoromethyl-phenyl)-piperidine-4-carboxylic acid thieno[2,3-d]pyrimidin-4-ylamide], the Emax at 12.2 µM was found to be 81% and the EC50 was determined as 0.86 µM.

For the compound `O=C1COc2ccc(NC(=O)C3CCN(c4nc5ccccc5s4)CC3)cc2N1` [Example 159, 1-Benzothiazol-2-yl-piperidine-4-carboxylic acid (3-oxo-3,4-dihydro-2H-benzo[1,4]oxazin-6-yl)-amide], the inhibition at 9 µM came out at 20.7%.

Take `Cc1cc(Oc2ccccc2)nc(NC(=O)C2CCN(c3cccc(C(F)(F)F)c3)CC2)n1` [Example 43, 1-(3-Trifluoromethyl-phenyl)-piperidine-4-carboxylic acid (4-methyl-6-phenoxy-pyrimidin-2-yl)-amide]: the inhibition at 9 µM was determined as 10%.

`N#Cc1ccc(C(F)(F)F)cc1N1CCC(C(=O)Nc2ccc3c(c2)NC(=O)CO3)CC1` [Example 163, 1-(2-Cyano-5-trifluoromethyl-phenyl)-piperidine-4-carboxylic acid (3-oxo-3,4-dihydro-2H-benzo[1,4]oxazin-6-yl)-amide]: the inhibition at 9 µM stood at 19.7%.

As to `CCOC(=O)c1[nH]c2ccccc2c1NC(=O)C1CCN(c2cccc(C(F)(F)F)c2)CC1` [Example 14, 3-{[1-(3-Trifluoromethyl-phenyl)-piperidine-4-carbonyl]-amino}-1H-indole-2-carboxylic acid ethyl ester], the inhibition at 9 µM turned out to be 4%.

In the case of `Cc1nc2ccc(NC(=O)C3CCN(c4cccc(C(F)(F)F)c4)CC3)nc2nc1C` [Example 40, 1-(3-Trifluoromethyl-phenyl)-piperidine-4-carboxylic acid (2,3-dimethyl-pyrido[2,3-b]pyrazin-6-yl)-amide], the inhibition at 9 µM turned out to be 11.5%.

Take `O=C(Nc1ccc2nc(S)sc2c1)C1CCN(c2cccc(C(F)(F)F)c2)CC1` [Example 26, 1-(3-Trifluoromethyl-phenyl)-piperidine-4-carboxylic acid (2-mercapto-benzothiazol-6-yl)-amide]: the Emax at 12.2 µM is 35.5% and the 50% effective concentration (EC50) was 2.55 µM.

With `O=C1COc2ccc(NC(=O)C3CCN(c4ncccc4[N+](=O)[O-])CC3)cc2N1` [Example 161, 3′-Nitro-3,4,5,6-tetrahydro-2H-[1,2′]bipyridinyl-4-carboxylic acid (3-oxo-3,4-dihydro-2H-benzo[1,4]oxazin-6-yl)-amide], the inhibition at 9 µM worked out at 28.7%.

Turning to `O=C1Cc2ccc(NC(=O)C3CCN(c4cccc(C(F)(F)F)c4)CC3)cc2N1` [Example 38, 1-(3-Trifluoromethyl-phenyl)-piperidine-4-carboxylic acid (2-oxo-2,3-dihydro-1H-indol-6-yl)-amide], the Emax at 12.2 µM is 62.8% and the EC50 worked out at 0.32 µM.

On to `Cc1nsc2ccc(NC(=O)C3CCN(c4cccc(C(F)(F)F)c4)CC3)cc12` [Example 12, 1-(3-Trifluoromethyl-phenyl)-piperidine-4-carboxylic acid (3-methyl-benzo[d]isothiazol-5-yl)-amide], for which the Emax at 12.2 µM was 74% and the EC50 is 0.86 µM.

For `Cc1cc(C)c2c(NC(=O)C3CCN(c4cccc(C(F)(F)F)c4)CC3)csc2n1` [Example 41, 1-(3-Trifluoromethyl-phenyl)-piperidine-4-carboxylic acid (4,6-dimethyl-thieno[2,3-b]pyridin-3-yl)-amide], the inhibition at 9 µM stood at 12%.

As to `CC(=O)N1CCc2c(NC(=O)C3CCN(c4cccc(C(F)(F)F)c4)CC3)cccc21` [Example 46, 1-(3-Trifluoromethyl-phenyl)-piperidine-4-carboxylic acid (1-acetyl-2,3-dihydro-1H-indol-4-yl)-amide], the inhibition at 9 µM was 61.4% and the IC50 is 1.2 µM.

As to `O=C1COc2ccc(NC(=O)C3CCN(c4cc(F)c(F)c(F)c4)CC3)cc2N1` [Example 156, 1-(3,4,5-Trifluoro-phenyl)-piperidine-4-carboxylic acid (3-oxo-3,4-dihydro-2H-benzo[1,4]oxazin-6-yl)-amide], the inhibition at 9 µM worked out at 93.3% and the IC50 was determined as 0.06 µM.

In the case of `O=C1COc2ncc(NC(=O)C3CCN(c4cccc(C(F)(F)F)c4)CC3)cc2N1` [Example 167, 1-(3-Trifluoromethyl-phenyl)-piperidine-4-carboxylic acid (2-oxo-2,3-dihydro-1H-pyrido[2,3-b][1,4]oxazin-7-yl)-amide], the inhibition at 9 µM is 45.7%.

As for `O=C(Nc1ccc2cc[nH]c2c1)C1CCN(c2cccc(C(F)(F)F)c2)CC1` [Example 23, 1-(3-Trifluoromethyl-phenyl)-piperidine-4-carboxylic acid (1H-indol-6-yl)-amide], the inhibition at 9 µM amounted to 19%.

Consider `O=C(Nc1ccc2c(=O)[nH][nH]c(=O)c2c1)C1CCN(c2cccc(C(F)(F)F)c2)CC1` [Example 31, 1-(3-Trifluoromethyl-phenyl)-piperidine-4-carboxylic acid (1,4-dioxo-1,2,3,4-tetrahydro-phthalazin-6-yl)-amide], for which the inhibition at 9 µM stood at 16%.

Turning to `CC(=O)N1c2cc(NC(=O)C3CCN(c4cccc(C(F)(F)F)c4)CC3)ccc2CC1C` (stereo not shown) [Example 37, 1-(3-Trifluoromethyl-phenyl)-piperidine-4-carboxylic acid (1-acetyl-2-methyl-2,3-dihydro-1H-indol-6-yl)-amide], the inhibition at 9 µM is 46.5% and the IC50 was found to be 2.64 µM.

Take `O=C1COc2cc(NC(=O)C3CCN(c4cccc(C(F)(F)F)c4)CC3)ccc2N1` [Example 44, 1-(3-Trifluoromethyl-phenyl)-piperidine-4-carboxylic acid (3-oxo-3,4-dihydro-2H-benzo[1,4]oxazin-7-yl)-amide]: the inhibition at 9 µM worked out at 33%.

As to `O=C(Nc1ccc(O)c2ncccc12)C1CCN(c2cccc(C(F)(F)F)c2)CC1` [Example 27, 1-(3-Trifluoromethyl-phenyl)-piperidine-4-carboxylic acid (8-hydroxy-quinolin-5-yl)-amide], the inhibition at 9 µM is 13%.

For the compound `CCOC(=O)c1c(C)nn(-c2ccc(NC(=O)C3CCN(c4cccc(C(F)(F)F)c4)CC3)cn2)c1C` [Example 36, 3,5-Dimethyl-1-(5-{[1-(3-trifluoromethyl-phenyl)-piperidine-4-carbonyl]-amino}-pyridin-2-yl)-1H-pyrazole-4-carboxylic acid ethyl ester], the inhibition at 9 µM amounted to 14%.
